Laboratory results as given in PMC5267425, “Identification of small molecule modulators of HIV-1 Tat and Rev protein accumulation” (Retrovirology, 2017).
“And” between values parts separate entries of the source, which are not always exact repeats. Equal values may be shown once.

Tested on: alternative splicing of host transcripts in HeLa rtTA HIV∆Mls cells
Assay: RT-PCR of host alternative splicing events (PSI), capillary electrophoresis
Assay type: cell-based
Parameters: PSI ZNF827_1 / PSI RAN_1 / PSI SEC24B_1 / PSI SMN2_1 / PSI TRIM37_1 / PSI RPS24_1 / PSI PDCL_1 / PSI SMN2_2 / PSI SETD5_1 / PSI RAI14_1 / PSI TPM1_1 / PSI SPAG9_1 / PSI POLDIP3_1 / PSI SRPK2_1 / PSI POMT1_1: concentration or dose not given beside the values
Method: To assess the effect of compounds on expression/alternative splicing of cellular RNA, two approaches were used. For both, total RNA was prepared from DMSO or compound-treated cells. In the first assay, samples were assayed by medium throughput RT-PCR to determine the inclusion levels of alternatively spliced exons and splice sites located in 73 selected events. 73 primer sets containing a fluorescently (5-FAM) labeled primer for each, were used in RT-PCR. PCR products generated were denatured in formamide and quantified using ABI Prism capillary sequencer (Life Technologies). The fragment analysis was performed on the PeakScanner software (Life Technologies) in batch mode and automated using custom scripts written in Python. The inclusion level of each exon was calculated as the amount of transcripts carrying the alternative exon relative to the total amount of all transcripts detected in the PCR reaction and results are summarized for compound-treatment in comparison to DMSO treatment. In the second assay, extracted RNA was processed using the Illumina TruSeq RNA Sample Preparation Kit (Illumina) according to the manufacturer’s instructions. The cDNA library generated was validated (passed quality control on a Bioanalyzer 1000 DNA chip (Agilent)), normalized and pooled for cluster generation. cDNA libraries were sequenced on the Illumina HiSeq 2500 (paired-end, 125 bp) with version 4 chemistry following manufacturer’s protocols. The full human genome and transcriptomic sequences were downloaded from the UCSC Genome Browser (genome.ucsc.edu) database and Ensembl (www.ensembl.org), respectively, as described by Irimia et al.. Exon annotations and genomic coordinates for alternative splicing (AS) analysis were derived from tables downloaded from the UCSC Genome Browser database. To determine gene expression (GE) or alternative splicing (AS) changes in an unbiased way, the effective number of unique mappable positions in each transcript (i.e. the effective length) was determined by aligning sequences with unique transcriptomic alignment to the human genome using Bowtie. Reads with one unique genomic alignment were then aligned against the canonical transcriptome and, for each transcript, the number of reads with one unique transcriptomic alignment were counted. The expression level of genes was quantified as corrected ‘reads per kilobase of exon model per million mapped reads’ (cRPKM), a widely used metric to estimate gene expression levels. The expression cutoff was 0.5 cRPKM, corresponding to the transcript of the gene being present if there were ≥10 reads that mapped uniquely to a single genomic locus. Approximately 19,847 Ensembl annotated protein-coding genes were compared to create a gene list of differentially expressed genes. Genes were considered differentially expressed if fold changes in cRPKM was ≥2 in compound-treated versus DMSO-treated samples.

SMILES: COc1ccc(C=NNC(=O)c2ccccc2O)cc1O [Compound 892, 2-hydroxy-N′-(3-hydroxy-4-methoxybenzylidene)benzohydrazide]
- DPSI EIF4A2_1 (chr7:187988792-187988899, mean PSI 5193892 minus DMSO, n=3, P Value 0.014): 13.67%
- PSI EIF4A2_1 (chr7:187988899-187988904, HeLa rtTA-HIV-DMls cells, replicates 25, 26, 27): 22.00 and 26.00 and 31.00
- DPSI EIF4A2_1 (chr7:187988899-187988904, mean PSI 5193892 minus DMSO, n=3, P Value 0.035): 8.33%
- PSI PDCL_1 (chr9:124628716-124628892, HeLa rtTA-HIV-DMls cells, replicates 25, 26, 27): 90.00 and 91.00 and 93.00
- DPSI PDCL_1 (chr9:124628716-124628892, mean PSI 5193892 minus DMSO, n=3, P Value 0.152): 1.67%
- PSI GM130_1 (chr9:130069293-130069374, HeLa rtTA-HIV-DMls cells, replicates 25, 26, 27): 23.00 and 18.00 and 15.00
- DPSI GM130_1 (chr9:130069293-130069374, mean PSI 5193892 minus DMSO, n=3, P Value 0.007): -14.33%
- PSI POMT1_1 (chr9:133368281-133368521, HeLa rtTA-HIV-DMls cells, replicates 25, 26, 27): 50.00 and 37.00 and 28.00
- DPSI POMT1_1 (chr9:133368281-133368521, mean PSI 5193892 minus DMSO, n=3, P Value 0.626): -4.00%
- PSI POMT1_1 (chr9:133371321-133371428, HeLa rtTA-HIV-DMls cells, replicates 25, 26, 27): 95.00 and 94.00 and 63.00
- DPSI POMT1_1 (chr9:133371321-133371428, mean PSI 5193892 minus DMSO, n=3, P Value 0.627): -5.67%
- PSI RPS24_1 (chr10:79467729-79467746, HeLa rtTA-HIV-DMls cells, replicates 25, 26, 27): 8.00 and 13.00 and 12.00
- DPSI RPS24_1 (chr10:79467729-79467746, mean PSI 5193892 minus DMSO, n=3, P Value 0.079): 3.67%
- PSI ADD3_1 (chr10:111882053-111882148, HeLa rtTA-HIV-DMls cells, replicates 25, 26, 27): 42.00 and 60.00 and 62.00
- DPSI ADD3_1 (chr10:111882053-111882148, mean PSI 5193892 minus DMSO, n=3, P Value 0.701): 3.33%
- PSI CTNND1_1 (chr11:57318058-57318129, HeLa rtTA-HIV-DMls cells, replicates 25, 26, 27): 82.00 and 76.00 and 100.00
- PSI APLP2_1 (chr11:129498717-129498884, HeLa rtTA-HIV-DMls cells, replicates 25, 26, 27): 15.00 and 18.00 and 19.00
- DPSI APLP2_1 (chr11:129498717-129498884, mean PSI 5193892 minus DMSO, n=3, P Value 0.009): -6.00%
- PSI ERC1_1 (chr12:1091641-1091725, HeLa rtTA-HIV-DMls cells, replicates 25, 26, 27): 36.00 and 55.00 and 52.00
- PSI FGFR1OP2_1 (chr12:27004715-27004828, HeLa rtTA-HIV-DMls cells, replicates 25, 26, 27): 22.00 and 15.00 (2×)
- DPSI FGFR1OP2_1 (chr12:27004715-27004828, mean PSI 5193892 minus DMSO, n=3, P Value 0.030): -11.67%
- PSI DNM1L_1 (chr12:32782066-32782143, HeLa rtTA-HIV-DMls cells, replicates 25, 26, 27): 24.00 and 37.00 and 39.00
- PSI DNM1L_1 (chr12:32782465-32782497, HeLa rtTA-HIV-DMls cells, replicates 25, 26, 27): 38.00 and 52.00 and 53.00
- DPSI DNM1L_1 (chr12:32782465-32782497, mean PSI 5193892 minus DMSO, n=3, P Value 0.447): -5.67%
- PSI NAP1L1_1 (chr12:74747418-74747520, HeLa rtTA-HIV-DMls cells, replicates 25, 26, 27): 76.00 and 78.00 and 83.00
- DPSI NAP1L1_1 (chr12:74747418-74747520, mean PSI 5193892 minus DMSO, n=3, P Value 0.123): -5.67%
- PSI NAP1L1_1 (chr12:74748956-74749041, HeLa rtTA-HIV-DMls cells, replicates 25, 26, 27): 76.00 and 75.00 and 79.00
- DPSI NAP1L1_1 (chr12:74748956-74749041, mean PSI 5193892 minus DMSO, n=3, P Value 0.018): -7.00%
- PSI MVK_1 (chr12:108501990-108502134, HeLa rtTA-HIV-DMls cells, replicates 25, 26, 27): 78.00 and 100.00 (2×)
- DPSI MVK_1 (chr12:108501990-108502134, mean PSI 5193892 minus DMSO, n=3, P Value 0.179): 16.00%
- PSI MVK_1 (chr12:108503583-108503738, HeLa rtTA-HIV-DMls cells, replicates 25, 26, 27): 64.00 and 74.00 and 45.00
- DPSI MVK_1 (chr12:108503583-108503738, mean PSI 5193892 minus DMSO, n=3, P Value 0.477): 8.33%
- PSI RAN_1 (chr12:129923082-129923127, HeLa rtTA-HIV-DMls cells, replicates 25, 26, 27): 93.00 (2×) and 94.00
- DPSI RAN_1 (chr12:129923082-129923127, mean PSI 5193892 minus DMSO, n=3, P Value 0.018): -4.67%
- PSI MBNL2_1 (chr13:96807051-96807104, HeLa rtTA-HIV-DMls cells, replicates 25, 26, 27): 11.00 and 30.00 and 29.00
- DPSI MBNL2_1 (chr13:96807051-96807104, mean PSI 5193892 minus DMSO, n=3, P Value 0.187): 10.33%
